# According to patent US20090110727A1, “Extended release compositions of proton pump inhibitors” (Eisai R & D management Co., Ltd., priority 2004, published 2009):
# Experiment: Osmotic pressure of saturated solutions by vapor pressure osmometer
# Type: physicochemical
# Conditions: Hewlett Packard vapor pressure osmometer; ±10%
# Method: The osmotic solute may be initially present in excess and it can be in any physical form that is compatible with the proton pump inhibitor, the dosage form, and the osmopolymer. […] In the table, the osmotic pressure π, is in atmospheres, atm. The osmotic pressure is measured in a commercially available osmometer that measures the vapor pressure difference between pure water and the solution to be analyzed and, according to standard thermodynamic principles, the vapor pressure ratio is converted into osmotic pressure difference. […] The osmometer used for the present measurements is identified as Model 320B, Vapor Pressure Osmometer, manufactured by the Hewlett Packard Co., Avondale, Pa.
row,Compound,π value (osmotic pressure)
1,[Cl-].[Na+] [Sodium Chloride],345 atm

# Same assay, conditions: saturated solutions at 37° C., in water
row,Compound,Osmotic Pressure in atm.
1,O=C(CO)[C@@H](O)[C@H](O)[C@H](O)CO [Fructose],355 atm
2,OC[C@@H](O)[C@@H](O)[C@H](O)[C@H](O)CO [Mannitol],38 atm
3,[Cl-].[K+] [Potassium Chloride],245 atm
4,O=S(=O)([O-])[O-].[K+].[K+] [Potassium Sulfate],39 atm
5,[Cl-].[Na+] [Sodium Chloride],356 atm
6,O.O.O.O.O.O.O.O=P([O-])([O-])O.[Na+].[Na+] [Sodium Phosphate Dibasic 7 H2O],31 atm

# More lines, now with the values ahead:
row,Osmotic Pressure in atm.,Compound
1,31 atm,O.O.O.O.O.O.O.O.O.O.O.O.O=P([O-])([O-])O.[Na+].[Na+] [Sodium Phosphate Dibasic 12 H2O]
2,29 atm,O=P([O-])([O-])O.[Na+].[Na+] [Sodium Phosphate Dibasic Anhydrous]
3,36 atm,O.O.O.O.O.O.O.O.O.O.O.O.O=P([O-])([O-])[O-].[Na+].[Na+].[Na+] [Sodium Phosphate Tribasic 12 H2O]
4,28 atm,Sodium Phosphate Monobasic H2O
